These results are taken from US7402688B2, “2,2-Di-substituted 1alpha,25-dihydroxy-19-norvitamin D derivative” (Wisconsin Alumni Research Foundation, priority 2002, dated 2008).

The subject of one test is cellular differentiation.
Test: not given
As to conditions: compared with 1,25-(OH)2D3; cited from earlier work.
`C[C@H](CCCC(C)(C)O)[C@H]1CC[C@H]2/C(=C/C=C3C[C@@H](O)C[C@H](O)C3)CCC[C@]12C` [19-nor-1,25-(OH)2D3, 19-nor-1α,25-dihydroxyvitamin D3]: the cellular effects entry was “equivalent to 1,25-(OH)2D3”.

The target of a further test is T1, vitamin D receptor (VDR) (Bos taurus, UniProt Q28037).
T1 construct: vitamin D receptor (VDR) derived from calf thymus was evaluated; purchased Yamasa Shoyu Co., Ltd. (Choshi, Chiba, Japan) Lot; No. 111931; host or cells: calf thymus (tissue preparation)
T1 sequence (Q28037 1-426): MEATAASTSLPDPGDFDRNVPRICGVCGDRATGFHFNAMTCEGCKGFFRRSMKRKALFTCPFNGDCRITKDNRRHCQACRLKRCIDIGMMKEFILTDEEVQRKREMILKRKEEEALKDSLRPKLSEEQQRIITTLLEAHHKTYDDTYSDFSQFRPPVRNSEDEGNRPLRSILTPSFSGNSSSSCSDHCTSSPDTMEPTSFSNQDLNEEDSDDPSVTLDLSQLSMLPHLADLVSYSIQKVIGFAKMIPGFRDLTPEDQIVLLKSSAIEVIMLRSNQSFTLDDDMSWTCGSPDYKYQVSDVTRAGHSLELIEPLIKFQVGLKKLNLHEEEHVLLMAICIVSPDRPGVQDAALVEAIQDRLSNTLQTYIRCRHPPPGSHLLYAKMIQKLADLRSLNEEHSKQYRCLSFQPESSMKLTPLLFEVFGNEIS
Briefly: Binding assay for calf thymus vitamin D receptor (VDR). As to conditions: relative to 1α,25-dihydroxyvitamin D3 = 1; ratio of concentrations for 50% inhibition of [3H]-1α,25-dihydroxyvitamin D3 binding to calf thymus VDR. On the procedure:
Binding Assay for Calf Thymus Vitamin D Receptor (VDR)
The binding ability of the compounds of the present inventions described in the above Examples to vitamin D receptor (VDR) derived from calf thymus was evaluated.
The binding assay was carried out according to the manufacturer's instruction of Yamasa Shoyu Co., Ltd. as follows.
An EtOH solution (sample) containing an increasing amount of each 1α,25-dihydroxyvitamin D3 (as a standard reference material), and Compounds YI-1a, YI-1b, YI-2a, YI-3a, YI-3b, YI-4a, YI-4b, YI-5a, YI-5b, 20-Epi-YI-1a, 20-Epi-YI-1b, 20-Epi-YI-2a, 20-Epi-YI-3a, 20-Epi-YI-4a, 20-Epi-YI-4b, 20-Epi-YI-5a, 20-Epi-YI-5b, 20-Epi-YI-6a, 20-Epi-YI-6b, 20-Epi-YI-7a, 20-Epi-YI-7b, 20-Epi-YI-8a, and 20-Epi-YI-8b was prepared, that is, dilution series were prepared wherein final concentrations of each compounds in a mixture, which is prepared by following step, of receptor solutions, samples, and [^3H]-1α,25-dihydroxyvitamin D3 solutions are 100 nM, 30 nM 10 nM, 1 nM, 300 pM, 100 pM, 30 pM, 10 pM, 3 pM, and 1 pM.
Freeze-dried calf thymus vitamin D receptors (Lot. No. 111931) were purchased from Yamasa Shoyu Co., Ltd. (Choshi, Chiba, Japan) and were dissolved in 45 mL of phosphate buffer (0.3 M KCl, 0.05 M K2HPO4—KH2PO4, pH 7.4) just before use to use as a receptor solution.
50 μL of sample of Compounds YI-1a, YI-1b, YI-2a, YI-3a, YI-3b, YI-4a, YI-4b, YI-5a, YI-5b, 20-Epi-YI-1a, 20-Epi-YI-1b, 20-Epi-YI-2a, 20-Epi-YI-3a, 20-Epi-YI-4a, 20-Epi-YI-4b, 20-Epi-YI-5a, 20-Epi-YI-5b, 20-Epi-YI-6a, 20-Epi-YI-6b, 20-Epi-YI-7a, 20-EPi-YI-7b, 20-Epi-YI-8a, 20-Epi-YI-8b, or 1α,25-dihydroxyvitamin D3 and 500 μL of the receptor solution were pipetted into glass culture tubes. The mixture was vortexed 2-3 times, and incubated for 1 h at room temperature. To each tubes, [^3H]-1α,25-dihydroxyvitamin D3 (ca. 10000 dpm) in 50 μL of EtOH was added, the mixture was vortexed 2-3 times, and the whole mixture was incubated for 18 h at 4° C. (in a refrigerator). Then, 200 μL of DCC (dextran-coated charcoal; purchased from Yamasa Shoyu) was added to each tubes, and allowed to stand for 30 min at 4° C. Bound and free [^3]-1α,25-dihydroxyvitamin D3 were separated by centrifugation at 3000 rpm for 15 min at 4° C. Aliquots (500 μL) of the supernatant were put into vial bottles from each tube, and were mixed with 10 mL of ACS-II fluid scintillator (Amersham, Buckinghamshire, U.K.) and submitted for radioactivity counting.
The relative binding affinity of the vitamin D derivatives of the present inventions to VDR was calculated regarding binding affinity of 1α,25-dihydroxyvitamin D3 to VDR as 1. The following equation was used to calculate the relative VDR binding affinity: X=y/x
X: the relative binding affinity of the compound of the present inventions to VDR
y: the concentration of 1α,25-dihydroxyvitamin D3 required for 50% inhibition of binding [^3H]-1α,25-dihydroxyvitamin D3 to VDR
x: the concentration of the compound of the present inventions required for 50% inhibition of binding [^3H]-1α,25-dihydroxyvitamin D3 to VDR
`C[C@@H](CCCC(C)(C)O)C1CCC2/C(=C/C=C3C[C@@H](O)C4(CO4)[C@H](O)C3)CCCC21C` (stereo partly drawn) [Compound 20-Epi-YI-1b, (20S)-1α,25-dihydroxy-2α,2′-epoxy-19-norvitamin D3]: the “VDR affinity (relative binding affinity X=y/x)” value is listed as 1/5.

In the case of `COCC1(O)[C@H](O)CC(=C/C=C2\CCCC3(C)C2CCC3[C@@H](C)CCCC(C)(C)O)C[C@H]1O` (stereo partly drawn) [Compound 20-Epi-YI-5a, (20S)-1α,2β,25-trihydroxy-2α-methoxymethyl-19-norvitamin D3], the “VDR affinity (relative binding affinity X=y/x)” value was 1/5.

Regarding `CCC1(O)[C@H](O)CC(=C/C=C2\CCCC3(C)C2CCC3[C@@H](C)CCCC(C)(C)O)C[C@H]1O` (stereo partly drawn) [Compound 20-Epi-YI-4a, (20S)-1α,2β,25-trihydroxy-2α-ethyl-19-norvitamin D3], the “VDR affinity (relative binding affinity X=y/x)” value is reported as 1/20.

`CCC1(O)[C@H](O)CC(=C/C=C2\CCCC3(C)C2CCC3[C@@H](C)CCCC(C)(C)O)C[C@H]1O` (stereo partly drawn) [Compound 20-Epi-YI-4b, (20S)-1α,2α,25-trihydroxy-2β-ethyl-19-norvitamin D3]: the “VDR affinity (relative binding affinity X=y/x)” value is 1/1000.

Take `COCC1(O)[C@H](O)CC(=C/C=C2\CCCC3(C)C2CCC3[C@H](C)CCCC(C)(C)O)C[C@H]1O` (stereo partly drawn) [YI-5a, 1α,2β,25-trihydroxy-2α-methoxymethyl-19-norvitamin D3]: the “VDR affinity (relative binding affinity X=y/x)” value was 1/26.

As for `CCC1(O)[C@H](O)CC(=C/C=C2\CCCC3(C)C2CCC3[C@H](C)CCCC(C)(C)O)C[C@H]1O` (stereo partly drawn) [YI-4a, 1α,2β,25-trihydroxy-2α-ethyl-19-norvitamin D3], the “VDR affinity (relative binding affinity X=y/x)” value is 1/50.

In the case of `C[C@@H](CCCC(C)(C)O)C1CCC2/C(=C/C=C3C[C@@H](O)C4(CO4)[C@H](O)C3)CCCC21C` (stereo partly drawn) [Compound 20-Epi-YI-1a, (20S)-1α,25-dihydroxy-2β,2′-epoxy-19-norvitamin D3], the “VDR affinity (relative binding affinity X=y/x)” value was 1/2.

With `C[C@@H](CCCC(C)(C)O)C1CCC2/C(=C/C=C3C[C@@H](O)C(=CCO)[C@H](O)C3)CCCC21C` (stereo partly drawn) [Compound 20-Epi-YI-8b, (20S)-1α,25-dihydroxy-2-[2-(hydroxyl)-ethylidene]-19-norvitamin D3], the “VDR affinity (relative binding affinity X=y/x)” value was 1/50.

In the case of `CCC1(O)[C@H](O)CC(=C/C=C2\CCCC3(C)C2CCC3[C@H](C)CCCC(C)(C)O)C[C@H]1O` (stereo partly drawn) [YI-4b, 1α,2α,25-trihydroxy-2β-ethyl-19-norvitamin D3], the “VDR affinity (relative binding affinity X=y/x)” value was 1/2000.

On to `C[C@@H](CCCC(C)(C)O)C1CCC2/C(=C/C=C3C[C@@H](O)C(=CCO)[C@H](O)C3)CCCC21C` (stereo partly drawn) [Compound 20-Epi-YI-8a], for which the “VDR affinity (relative binding affinity X=y/x)” value was 1.6.

Take `C[C@@H](CCCC(C)(C)O)C1CCC2/C(=C/C=C3C[C@@H](O)C(OCCO)[C@H](O)C3)CCCC21C` (single isomer, unassigned) [Compound 20-Epi-YI-6a]: the “VDR affinity (relative binding affinity X=y/x)” value came to 1.

Consider `C[C@@H](CCCC(C)(C)O)C1CCC2/C(=C/C=C3C[C@@H](O)C(CCO)[C@H](O)C3)CCCC21C` (stereo partly drawn) [Compound 20-Epi-YI-7a], for which the “VDR affinity (relative binding affinity X=y/x)” value is recorded as 1.

`C[C@@H](CCCC(C)(C)O)C1CCC2/C(=C/C=C3C[C@@H](O)C(C)(O)[C@H](O)C3)CCCC21C` (stereo partly drawn) [Compound 20-Epi-YI-3a, (20S)-1α,2β,25-trihydroxy-2α-methyl-19-norvitamin D3]: the “VDR affinity (relative binding affinity X=y/x)” value was 1.

Consider `C[C@H](CCCC(C)(C)O)C1CCC2/C(=C/C=C3C[C@@H](O)C4(CO4)[C@H](O)C3)CCCC21C` (stereo partly drawn) [YI-1a, 1α,25-dihydroxy-2β,2′-epoxy-19-norvitamin D3], for which the “VDR affinity (relative binding affinity X=y/x)” value is 1/23.

Regarding `C[C@H](CCCC(C)(C)O)C1CCC2/C(=C/C=C3C[C@@H](O)C(C)(O)[C@H](O)C3)CCCC21C` (stereo partly drawn) [YI-3b, 1α,2α,25-trihydroxy-2β-methyl-19-norvitamin D3], the “VDR affinity (relative binding affinity X=y/x)” value is recorded as 1/730.

`C[C@H](CCCC(C)(C)O)C1CCC2/C(=C/C=C3C[C@@H](O)C(C)(O)[C@H](O)C3)CCCC21C` (stereo partly drawn) [YI-3a, 1α,2β,25-trihydroxy-2α-methyl-19-norvitamin D3]: the “VDR affinity (relative binding affinity X=y/x)” value is recorded as 1/3.

Consider `C[C@H](CCCC(C)(C)O)C1CCC2/C(=C/C=C3C[C@@H](O)C(O)(CF)[C@H](O)C3)CCCC21C` (stereo partly drawn) [YI-2a, 1α,2β,25-trihydroxy-2α-fluoromethyl-19-norvitamin D3], for which the “VDR affinity (relative binding affinity X=y/x)” value is reported as 1/43.

Take `C[C@@H](CCCC(C)(C)O)C1CCC2/C(=C/C=C3C[C@@H](O)C(OCCO)[C@H](O)C3)CCCC21C` (single isomer, unassigned) [Compound 20-Epi-YI-6b]: the “VDR affinity (relative binding affinity X=y/x)” value was 5.

As to `C[C@H](CCCC(C)(C)O)C1CCC2/C(=C/C=C3C[C@@H](O)C4(CO4)[C@H](O)C3)CCCC21C` (stereo partly drawn) [YI-1b, 1α,25-dihydroxy-2α,2′-epoxy-19-norvitamin D3], the “VDR affinity (relative binding affinity X=y/x)” value is given as 1/290.

As for `C[C@@H](CCCC(C)(C)O)C1CCC2/C(=C/C=C3C[C@@H](O)C(CCO)[C@H](O)C3)CCCC21C` (stereo partly drawn) [Compound 20-Epi-YI-7b], the “VDR affinity (relative binding affinity X=y/x)” value is on record as 1/5.

As for `C[C@@H](CCCC(C)(C)O)C1CCC2/C(=C/C=C3C[C@@H](O)C(O)(CF)[C@H](O)C3)CCCC21C` (stereo partly drawn) [Compound 20-Epi-YI-2a, (20S)-1α,2β,25-trihydroxy-2α-fluoromethyl-19-norvitamin D3], the “VDR affinity (relative binding affinity X=y/x)” value was 2.

`COCC1(O)[C@H](O)CC(=C/C=C2\CCCC3(C)C2CCC3[C@@H](C)CCCC(C)(C)O)C[C@H]1O` (stereo partly drawn) [Compound 20-Epi-YI-5b, (20S)-1α,2α,25-trihydroxy-2β-methoxymethyl-19-norvitamin D3]: the “VDR affinity (relative binding affinity X=y/x)” value is on record as 1/10.

As for `COCC1(O)[C@H](O)CC(=C/C=C2\CCCC3(C)C2CCC3[C@H](C)CCCC(C)(C)O)C[C@H]1O` (stereo partly drawn) [YI-5b, 1α,2α,25-trihydroxy-2β-methoxymethyl-19-norvitamin D3], the “VDR affinity (relative binding affinity X=y/x)” value is given as 1/820.
